Results taken from patent publication US20100135905A1, “ASSESSMENT OF CANCER SUSCEPTIBILITY TO MOLECULAR TARGETED THERAPY BY USE OF RECOMBINANT PEPTIDES” (priority 2004, published 2010).
No end group written: not given here.

Experiments:
[1] = tested on: GL261 tumors; assay: TUNEL stain of intracranial GL261 glioblastoma tumors; type: in vivo, C57BL/6 mice
Method: The response of cancer cells within the intracranial glioblastoma tumor model, GL261, was also tested in mice. GL261 tumors were implanted into the brains of C57BL/6 mice. After tumor formation (seven days later), mice were treated with GLEEVEC®, 4 Gy or both GLEEVEC® and 4 Gy. Tumors were sectioned and assayed with TUNEL stain to identify apoptotic nuclei. […] The pharmacodynamic response (such as apoptosis) in tumors treated with GLEEVEC® correlated with tumor growth delay.

[2] = tested on: tumor vascular endothelium; details: Geng et al., 2001; Lu et al., 2004; cited from earlier work
[3] = biological target: T1, GP-IIb/IIIa receptors on activated platelets (Homo sapiens, UniProt P05106+P08514); assay: Clinical gamma camera/SPECT imaging of 99mTc-labeled bibapcitide in irradiated tumors; type: in vivo, patients
T1 construct: from tissue
Method: Ligand Preparation and Administration. Bibapcitide (ACUTECT™, available from Diatide, Inc. of Londonderry, N.H., United States of America) is a synthetic peptide that binds to GP-IIb/IIIa receptors on activated platelets (Hawiger et al., 1989; Hawiger & Timmons, 1992). Bibapcitide was labeled with ^99mTc in accordance with a protocol provided by Diatide Inc.
Reconstituted ^99mTc-labeled bibapcitide was administered to patients at a dose of 100 μg of bibapcitide radiolabeled with 10 mCi of ^99mTc. […] Patients underwent gamma camera imaging prior to irradiation and 24 hours following irradiation.
Following planar image acquisition, those patients showing uptake in irradiated tumors underwent tomographic imaging using SPECT and repeat imaging at 24 hours. Patients showing no uptake on planer images during this 24-hour time frame had no further imaging.
Patients were treated with X-irradiation ranging from 4 to 18 MV photon using external beam linear accelerator at Vanderbilt University. Appropriate blocks, wedges, and bolus to deliver adequate dose to the planned target volume was utilized. The site of irradiation, treatment intent, and normal tissue considerations determined the radiation dosage and volume. When stereotactic radiosurgery was used, the dose was prescribed to the tumor periphery.
Image Analysis. Image acquisition consisted of both planar and single photon emission computed tomography (SPECT) studies. Planar studies were performed on a dual-head gamma camera (Millennium VG-Variable Geometry model available from General Electric Medical Systems of Milwaukee, Wis., United States of America) equipped with low energy high-resolution (LEUR) collimators. This type of collimator represents a compromise between sensitivity (photon counting efficiency) and image resolution. Planar nuclear medicine images were acquired with a 256×256 acquisition matrix (pixel size approximately 0.178 cm/pixel) for 10 minutes. In order to maximize collimator-gamma camera system sensitivity the source-to-detector surface distance was minimized to the extent that patient geometry allows. The spatial distribution of […] within the planar image was measured using region-of-interest (ROI) analysis. Two different size ROIs (5×5 pixel, and 15×15 pixel) was used in both the tumor and surrounding organs and tissues in the patient. The rationale for using ROIs with different dimensions is to be able to quantify image counts while at the same time isolating any possible influence of ROI size on the results. Tumor-to-background ratios were computed as the ratio of average counts in the tumor region divided by average counts in surrounding organs and tissues, each corrected for background. Background counts was determined based on ROI analysis of a separate planar acquisition performed in the absence of a radioactive source.
Three-dimensional nuclear medicine SPECT examinations were performed using the same dual-head gamma camera system. Each SPECT study comprised a 360 scan acquired with a step-and-shoot approach utilizing the following acquisition parameters: three increments between views, a 256×256×64 acquisition matrix, LEUR collimation and 60 seconds per view. […] SPECT tumor-to-background ratios were computed using quantitative ROI techniques identical to the planar studies. […]

[4] = tested on: LLC and GL261 tumors; assay: Conserved motifs within phage peptides recovered by in vivo panning from both tumor models; design: species or system mice; details: for Frequency of Recovery of conserved sequence: share of phage peptides recovered from irradiated tumors that contain the sequence
Method: (§1) For in vivo panning, tumors were irradiated with 3 Gy and approximately 10^10 phage (prepared as described in Example 1) were administered by tail vein injection into each of the tumor bearing mice at 4 hours following irradiation. Tumors were recovered at one hour following injection and amplified in BL21 bacteria. Amplified phage were pooled and re-administered to a tumor-bearing mouse following tumor irradiation. The phage pool was sequentially administered to a total of 6 animals. As a control, wild type phage lacking synthetic peptide inserts were identically administered to a second experimental group of animals.
(§2) Following six rounds of in vivo panning, fifty recombinant phage peptides that bound within irradiated tumors were randomly selected for further analysis. The nucleic acid sequence encoding recombinant phage was amplified by PCR using primers set forth as SEQ ID NOs: 20-21 (available from Novagen Brand, a unit of EMD Biosciences, Inc., Madison, Wis.). An individual phage suspension was used as template. Amplified peptides were sequenced using an ABI PRISM® 377 sequencer (Applied Biosystems of Foster City, Calif., United States of America).
The amino acid sequences of all phage that were recovered from both tumors were studied in order to identify homologous sequences (Table 2). The most commonly recovered phage peptide had amino acid sequence HVGGSSV (SEQ ID NO: 1), and the second most common sequence was […] (SEQ ID NO: 2). The probability of recovering these peptide sequences from both tumor subtypes is 625/10^14 for each of the peptide sequences. The peptide sequence GSSV (SEQ ID NO: 9) was present in 58% of the phage recovered from tumors. Homology between peptides recovered from LLC and GL261 included 100% homology in […] (SEQ ID NO: 2) and 70% homology in RGSGSRV (SEQ ID NO.: 12). Of interest is a 6 amino acid homology spanning over 8 amino acids that include amino acids SXRGXGS (SEQ ID NO: 13), which was recovered from 28% of all phage in 2 tumor models (p<0.0001). The probability of having six identical amino acids by chance is 6^−24.

[5] = tested on: responding tumor blood vessels; assay: Biotinylated peptide binding in tumor blood vessels, FITC-avidin fluorescent microscopy; type: in vivo, mice
Method: The amino acid sequence RGXGSXV (SEQ ID NO: 18) was found in 41% of phage recovered from treated LLC tumors. To determine the pattern of RGDGSSV (SEQ ID NO: 10) peptide binding within responding tumor blood vessels, biotinylated peptide was administered by tail vein injection. Tumors were implanted into both hind limbs of mice. The right tumor was irradiated according to Example 2, and the left served as an untreated internal negative control. Biotinylated peptide was administered by tail vein injection immediately prior to tumor irradiation.

[6] = tested on: LLC tumors; assay: In vivo panning of T7 phage peptide library: phage recovered from irradiated LLC tumors; design: species or system mice
Method: (§3) GL261 murine glioma cells and Lewis lung carcinoma (LLC) cells were implanted into the hind limb of C57BL/6 mice (see Hallahan et al., 1995b; Hallahan et al., 1998; Hallahan & Virudachalam, 1999).
as §1
(§4) To determine the titer of phage binding in a tumor or in normal tissue, recovered phage were amplified in BL21 bacteria. Bacteria were plated and the number of plaques present was counted. To determine the total phage output per organ, the number of plaque forming units (PFU) on each plate was divided by the volume of phage plated and the weight of each organ. Normal variation was observed as a 2-fold difference in PFU. In the present Example, background binding within tumor blood vessels was approximately 10^4 phage. Phage that bound to the vasculature within irradiated tumors show enrichment in the tumor relative to other organs and enrichment in the irradiated tumor relative to the control phage without DNA insert.
as §2

[7] = tested on: GL261 tumors; assay: In vivo panning of T7 phage peptide library: phage recovered from irradiated GL261 tumors; design: species or system mice; details: Experiment A, 3 Gy; for Phage Recovered from GL261 tumors: number of sequenced phage after six rounds; for Phage Recovered from GL261 tumors (Frequency): six rounds
Method: as §3, §1, §4, §2

[8] = tested on: B16F0 melanoma, lung carcinoma and glioma tumor models; assay: Binding of phage-encoded peptides in additional tumor models; type: in vivo; details: phage encoding the peptide
Description: The binding properties of phage encoding HVGGSSV (SEQ ID NO: 1), […] (SEQ ID NO: 2), […] (SEQ ID NO: 3), and SVGSRV (SEQ ID NO: 4) were additionally characterized in a B16F0 melanoma model.

[9] = Experiment B, number of sequenced phage
[10] = Experiment A, number of sequenced phage after six rounds, 3 Gy

T1 sequence (P08514 32-887 limits assumed): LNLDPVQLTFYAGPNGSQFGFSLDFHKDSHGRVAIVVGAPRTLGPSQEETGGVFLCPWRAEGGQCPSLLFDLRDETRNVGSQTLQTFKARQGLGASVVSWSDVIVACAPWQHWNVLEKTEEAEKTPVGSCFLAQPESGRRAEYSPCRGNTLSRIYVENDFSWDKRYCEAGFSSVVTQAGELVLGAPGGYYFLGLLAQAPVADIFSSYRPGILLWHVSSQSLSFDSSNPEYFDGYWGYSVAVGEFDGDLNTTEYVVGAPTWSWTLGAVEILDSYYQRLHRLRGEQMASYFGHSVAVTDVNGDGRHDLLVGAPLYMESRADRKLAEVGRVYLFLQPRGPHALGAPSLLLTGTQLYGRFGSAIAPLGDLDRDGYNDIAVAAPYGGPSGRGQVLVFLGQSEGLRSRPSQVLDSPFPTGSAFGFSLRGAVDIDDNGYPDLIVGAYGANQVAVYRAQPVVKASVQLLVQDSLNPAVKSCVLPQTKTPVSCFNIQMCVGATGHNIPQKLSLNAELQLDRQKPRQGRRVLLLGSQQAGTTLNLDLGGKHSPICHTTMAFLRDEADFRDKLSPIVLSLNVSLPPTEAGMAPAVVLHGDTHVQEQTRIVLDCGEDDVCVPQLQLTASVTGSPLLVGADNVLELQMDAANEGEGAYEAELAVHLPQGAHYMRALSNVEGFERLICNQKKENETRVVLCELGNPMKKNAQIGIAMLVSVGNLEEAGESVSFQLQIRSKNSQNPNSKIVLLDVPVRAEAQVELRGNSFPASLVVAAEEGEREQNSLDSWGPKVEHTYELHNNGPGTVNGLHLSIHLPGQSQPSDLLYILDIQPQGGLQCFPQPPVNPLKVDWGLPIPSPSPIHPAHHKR
T1 sequence (P08514 891-1039 partner limits assumed): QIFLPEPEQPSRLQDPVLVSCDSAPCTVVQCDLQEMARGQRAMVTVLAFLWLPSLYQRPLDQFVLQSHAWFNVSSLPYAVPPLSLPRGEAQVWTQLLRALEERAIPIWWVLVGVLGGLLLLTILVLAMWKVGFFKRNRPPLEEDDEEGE
T1 sequence (P05106 27-788): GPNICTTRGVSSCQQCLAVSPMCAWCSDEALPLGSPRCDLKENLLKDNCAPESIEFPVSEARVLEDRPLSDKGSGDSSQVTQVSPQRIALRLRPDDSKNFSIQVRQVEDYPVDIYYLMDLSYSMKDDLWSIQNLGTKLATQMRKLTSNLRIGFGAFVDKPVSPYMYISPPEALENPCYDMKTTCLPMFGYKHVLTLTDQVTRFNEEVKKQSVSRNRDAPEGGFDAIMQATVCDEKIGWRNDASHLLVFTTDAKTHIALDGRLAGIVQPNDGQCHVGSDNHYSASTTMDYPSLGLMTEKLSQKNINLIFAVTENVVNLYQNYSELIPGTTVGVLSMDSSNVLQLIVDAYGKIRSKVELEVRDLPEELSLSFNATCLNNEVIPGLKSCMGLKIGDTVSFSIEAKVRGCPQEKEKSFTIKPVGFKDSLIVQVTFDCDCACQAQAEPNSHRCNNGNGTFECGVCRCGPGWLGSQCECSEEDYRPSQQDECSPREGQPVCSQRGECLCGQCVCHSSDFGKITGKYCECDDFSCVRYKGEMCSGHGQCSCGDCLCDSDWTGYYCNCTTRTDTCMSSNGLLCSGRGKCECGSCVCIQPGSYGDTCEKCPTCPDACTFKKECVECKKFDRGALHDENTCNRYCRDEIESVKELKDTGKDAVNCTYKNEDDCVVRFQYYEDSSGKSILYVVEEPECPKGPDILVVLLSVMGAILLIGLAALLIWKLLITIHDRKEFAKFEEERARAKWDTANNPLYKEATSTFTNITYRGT

Molecule: Cc1ccc(NC(=O)c2ccc(CN3CCN(C)CC3)cc2)cc1Nc1nccc(-c2cccnc2)n1 [GLEEVEC®]
- Glioma nuclei stained positive with TUNEL stain ([1]; TKI alone): 5%
- Apoptotic nuclei (TUNEL) ([1]; TKI followed by irradiation (4 Gy)): 18%

Molecule: Cc1cc(C)c(/C=C2\C(=O)Nc3ccccc32)[nH]1 [SU5416]
- Apoptosis within tumor vascular endothelium [2]: induced apoptosis within tumor vascular endothelium

Molecule: Cc1[nH]c(/C=C2\C(=O)Nc3ccccc32)c(C)c1CCC(=O)O [SU6668]
- Apoptosis within tumor vascular endothelium [2]: induced apoptosis within tumor vascular endothelium

Molecule: Bibapcitide [^99mTc-labeled bibapcitide]
- Tumor binding ([3]; administered immediately prior to radiation, 10 Gy or more): 4 of 4
- Localization to tumor ([3]; administered within one hour following radiation): failed to show localization
- Specificity of binding ([3]; clinical study, general finding): non-specific binding
- Binding to responding tumors in dose de-escalation study ([3]; radiation dose reduced to 5 Gy): not sufficient
- Binding in second neoplasms not treated with radiation ([3]; two patients, non-responding tumors): not observed

Molecule: GSRV (conserved subsequence) [conserved motif within peptides identified by in vivo panning]
- Frequency of Recovery of conserved sequence [4]: 6%

Molecule: GSSV (conserved subsequence) [conserved motif within peptides identified by in vivo panning]
- Phage recovered from irradiated tumors ([4]; phage with peptide insert comprising the subsequence, no phage with wild type): 22-40 of 10^6 injected phage
- Frequency of Recovery of conserved sequence [4]: 58%

Molecule: GSXV [conserved motif within peptides identified by in vivo panning]
- Frequency of Recovery of conserved sequence [4]: 80%

Molecule: NSV (conserved sequence) [N-terminal NSV, conserved N-terminal motif, N encoded by the vector]
- Frequency of Recovery of conserved sequence [4]: 22%

Molecule: NSXR [N-terminal NSXR, conserved N-terminal motif, N encoded by the vector]
- Frequency of Recovery of conserved sequence [4]: 39%

Molecule: NXVG [N-terminal NXVG, conserved N-terminal motif, N encoded by the vector]
- Frequency of Recovery of conserved sequence [4]: 34%

Molecule: RGDGSSV (also: biotin, site not given here) [tested as biotinylated peptide]
- Peptide binding in irradiated (responding) tumor ([5]; biotinylated peptide by tail vein immediately prior to irradiation, right tumor irradiated): accumulation throughout the lumen of responding tumors
- Peptide binding in untreated control tumor ([5]; biotinylated peptide by tail vein, left tumor untreated internal control): near absence of binding
- Frequency of Recovery of conserved sequence [4]: 28%

Molecule: RGXGSXV [conserved motif in phage recovered from treated LLC tumors]
- Frequency of sequence in phage recovered from treated LLC tumors ([6]; treated LLC tumors): 41%

Molecule: SGRKVGSGSSV (Peptide that binds to LLC and/or GL261 tumors) [peptide isolated by in vivo panning of a phage library]
- Phage Recovered from LLC tumors (Frequency) ([6]; Experiment B): (50%)
- Phage Recovered from LLC tumors [6, 9]: 7

Molecule: SKEK (Peptide that binds to LLC and/or GL261 tumors) [peptide isolated by in vivo panning of a phage library]
- Phage Recovered from LLC tumors (Frequency) ([6]; Experiment B): (7%)
- Phage Recovered from LLC tumors [6, 9]: 1

Molecule: SRKQGGTEV (Peptide that binds to LLC and/or GL261 tumors) [peptide isolated by in vivo panning of a phage library]
- Phage Recovered from LLC tumors (Frequency) ([6]; Experiment B): (7%)
- Phage Recovered from LLC tumors [6, 9]: 1

Molecule: SVGSRV (Peptide that binds to LLC and/or GL261 tumors) [peptide isolated by in vivo panning of a phage library]
- Phage Recovered from LLC tumors [6, 10]: 1
- Phage Recovered from LLC tumors (Frequency) ([6]; Experiment A, six rounds, 3 Gy): (4%)
- Phage Recovered from GL261 tumors [7]: 3
- Phage Recovered from GL261 tumors (Frequency) [7]: (12%)
- Tumor models within which the phage-encoded peptide bound [8]: bound within lung carcinoma and glioma

Molecule: SVRGSGSGV (Peptide that binds to LLC and/or GL261 tumors) [peptide isolated by in vivo panning of a phage library]
- Phage Recovered from LLC tumors [6, 10]: 7
- Phage Recovered from LLC tumors (Frequency) ([6]; Experiment A, six rounds, 3 Gy): (28%)
- Phage Recovered from GL261 tumors [7]: 0
- Phage Recovered from GL261 tumors (Frequency) [7]: (0%)
- Tumor models within which the phage-encoded peptide bound [8]: bound within glioma and melanoma

Molecule: SVVRDGSEV (Peptide that binds to LLC and/or GL261 tumors) [peptide isolated by in vivo panning of a phage library]
- Phage Recovered from LLC tumors (Frequency) ([6]; Experiment B): (21%)
- Phage Recovered from LLC tumors [6, 9]: 3

Molecule: SXRGXGS [conserved motif within peptides identified by in vivo panning]
- Frequency of Recovery of conserved sequence [4]: 28%
